Reference: PubChem BioAssay AID1324 (NMMLSC, 2008)
Active and inactive are the calls of the source. No rule for the calls is given here.

What follows are compounds tested against glutathione S-transferase (GST-GSH binding) (assay: GST–glutathione interaction disruption – biochemical, multiplex beads, flow cytometry, HPSMTB buffer, profiling panel (AID 1324;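 also: glutathione beads loaded with GST-green fluorescent protein and no fluorescent Bim peptide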)). Conditions: multiplex bead flow cytometry, MCF.

**Q.** With `COc1cccc(/C=N/Nc2nn3cnnc3c3ccccc23)c1` as the compound, how does the EC50 read?
**A.** The EC50 was 7.28 µM.

**Q.** Which EC50 does the source give for `Cc1ccnc(Nc2nc(-c3c(C)nc4sccn34)cs2)c1` here?
**A.** The EC50 was “inactive”.

**Q.** Which EC50 does the source give for `CC1=CC(=O)c2c(O)ccc(O)c2C1=O` here?
**A.** Its EC50 is “inactive”.

**Q.** With `Cc1ccc(O)c(NC2=C(Cl)C(=O)N(Cc3ccccc3)C2=O)c1` as the compound, how does the EC50 read?
**A.** Its EC50 is “inactive”.

**Q.** For `O=c1c2c(-c3ccccc3)csc2nc2c3ccccc3c(NCCN3CCOCC3)nn12`, which EC50 is on record?
**A.** The EC50 was 0.21 µM.

**Q.** `COc1ccc2nc(-c3ccco3)c(-c3ccco3)nc2c1` was tested. Which EC50 did it give?
**A.** The EC50 was “inactive”.

Same assay, conditions: multiplex bead flow cytometry, MCF, hits give high values, concentration not given here

**Q.** Which percent span inhibition does the source give for `OCCC1CN(Cc2nc3c(s2)CCCC3)CCN1Cc1ccsc1` (stereo not given) here?
**A.** The percent span inhibition was “inactive”.

**Q.** With `Cc1cc2nc(/C(C#N)=C/c3ccncc3)[nH]c2cc1C` as the compound, how does the percent span inhibition read?
**A.** Its percent span inhibition is “inactive”.

**Q.** Which percent span inhibition does the source give for `Nc1ccc(-c2cn3cccnc3n2)cc1` here?
**A.** The percent span inhibition was “inactive”.

**Q.** How did the percent span inhibition turn out when `CCOC(=O)C1=C(Cc2ccc(OC)cc2)C(=O)c2ccccc2C1=O` was run?
**A.** Its percent span inhibition is “inactive”.

**Q.** `Nc1cccc(-c2cn3cccnc3n2)c1` was tested. Which percent span inhibition did it give?
**A.** The percent span inhibition was “inactive”.

**Q.** For `O=C(N/N=C/c1ccc(-c2ccccc2[N+](=O)[O-])o1)c1cncc(Br)c1`, which percent span inhibition is on record?
**A.** Its percent span inhibition is “inactive”.

**Q.** For `COc1cc(CNc2ccc3[nH]c(=O)[nH]c3c2)cc(Br)c1OCC(=O)NC(C)(C)C`, which percent span inhibition is on record?
**A.** Its percent span inhibition is “inactive”.

**Q.** How did the percent span inhibition turn out when `CC(C)C(=O)NC(c1ccccc1)c1cc([N+](=O)[O-])c2cccnc2c1O` (stereo not given) was run?
**A.** Its percent span inhibition is “inactive”.

**Q.** How did the percent span inhibition turn out when `COC(=O)c1sc(NC(=O)c2ccc(Cn3cc(Cl)cn3)o2)c(C#N)c1C` was run?
**A.** Its percent span inhibition is “inactive”.

**Q.** `O=[N+]([O-])c1ccc2[nH]nc(-c3ccccc3)c2c1` was tested. Which percent span inhibition did it give?
**A.** Its percent span inhibition is “inactive”.

**Q.** Which percent span inhibition does the source give for `CN(Cc1ccccc1)c1nc2c(c(=O)[nH]c(=O)n2C)n1C` here?
**A.** The percent span inhibition was “inactive”.

**Q.** `CCN1/C(=C/C(C)=C/c2sc3ccccc3[n+]2CC)Sc2ccccc21` was tested. Which percent span inhibition did it give?
**A.** The percent span inhibition was “inactive”.

**Q.** For `CNC(=O)c1c(N)sc2c1CCCCC2`, which percent span inhibition is on record?
**A.** The percent span inhibition was “inactive”.

**Q.** For `O=C1CSc2ccc(C(=O)Nc3cccc(S(=O)(=O)Nc4ccc(Br)cc4)c3)cc2N1`, which percent span inhibition is on record?
**A.** The percent span inhibition was “inactive”.

**Q.** How did the percent span inhibition turn out when `O=c1nc2c(O)cccn2c2c1c(=O)[nH]c1ccccc12` was run?
**A.** Its percent span inhibition is “inactive”.

**Q.** `COc1ccc(OC)c(NC(=O)COC(=O)c2cc3c(s2)CCC3)c1` was tested. Which percent span inhibition did it give?
**A.** The percent span inhibition was “inactive”.

**Q.** With `CC(=O)NC(=O)Nc1sc(=S)n(C)c1C` as the compound, how does the percent span inhibition read?
**A.** Its percent span inhibition is “inactive”.

**Q.** How did the percent span inhibition turn out when `COc1ccc(/C=C/C(=O)Nc2sc(Cc3ccccc3)c(C)c2C(N)=O)cc1` was run?
**A.** Its percent span inhibition is “inactive”.

**Q.** `Cn1c(N)c(C(=O)COC(=O)c2cc(-c3ccco3)nc3ccccc23)c(=O)n(Cc2ccccc2)c1=O` was tested. Which percent span inhibition did it give?
**A.** The percent span inhibition was “inactive”.

**Q.** For `Cn1c(N)c(C(=O)COC(=O)c2cc(-c3ccco3)nc3ccccc23)c(=O)n(C)c1=O`, which percent span inhibition is on record?
**A.** The percent span inhibition was “inactive”.

**Q.** Which percent span inhibition does the source give for `CC(C(=O)Nc1cc([N+](=O)[O-])ccc1Cl)N1CCN(c2ccc(O)cc2)CC1` (stereo not given) here?
**A.** Its percent span inhibition is “inactive”.

**Q.** With `COc1ccc(S(=O)(=O)NCCSc2ccc(Cl)cc2)cc1OC` as the compound, how does the percent span inhibition read?
**A.** Its percent span inhibition is “inactive”.

**Q.** With `S=C1NC2=C(CCC/C2=C\c2ccccc2)C(c2ccccc2)N1` (stereo not given) as the compound, how does the percent span inhibition read?
**A.** Its percent span inhibition is “inactive”.

**Q.** How did the percent span inhibition turn out when `COc1ccc(NC(=O)C2=C(C)NC(=O)NC2c2cccc(OC)c2OC)c(OC)c1` (stereo not given) was run?
**A.** The percent span inhibition was “inactive”.

**Q.** For `CN=C(NC1CCCCC1)c1ccc(Cl)cc1`, which percent span inhibition is on record?
**A.** The percent span inhibition was “inactive”.

**Q.** For `O=C(CSc1ccc2nnc(-c3ccncc3)n2n1)Nc1nccs1`, which percent span inhibition is on record?
**A.** The percent span inhibition was “inactive”.

**Q.** How did the percent span inhibition turn out when `O=C(O)/C=C/C(=O)NNC(=O)c1ccc(Br)cc1` was run?
**A.** The percent span inhibition was “inactive”.

**Q.** `COCCNC(=O)CN1CCC(NC(=O)Nc2ccccc2)CC1` was tested. Which percent span inhibition did it give?
**A.** The percent span inhibition was “inactive”.

**Q.** `Cc1noc(C)c1COc1ccc(C(=O)Nc2cccnc2)cc1` was tested. Which percent span inhibition did it give?
**A.** Its percent span inhibition is “inactive”.

**Q.** With `Cc1[nH]n(C(N)=S)c(=O)c1N=Nc1ccc(S(=O)(=O)N2CCCCCC2)cc1` as the compound, how does the percent span inhibition read?
**A.** Its percent span inhibition is “inactive”.

**Q.** `C=CS(=O)c1sc(Cl)c(N2CCOCC2)c1[N+](=O)[O-]` (stereo not given) was tested. Which percent span inhibition did it give?
**A.** The percent span inhibition was “inactive”.

**Q.** `COP(=O)(CC(=O)O)c1ccccc1` (stereo not given) was tested. Which percent span inhibition did it give?
**A.** Its percent span inhibition is “inactive”.

**Q.** For `CC1(C)SC(=S)N(NC(=O)Nc2ccccc2)C1N(O)C(=O)Nc1cccc2ccccc12` (stereo not given), which percent span inhibition is on record?
**A.** The percent span inhibition was “inactive”.

**Q.** How did the percent span inhibition turn out when `O=C(C[n+]1ccc(-c2nnc3n2CCC3)cc1)c1ccc(Cl)cc1` was run?
**A.** Its percent span inhibition is “inactive”.

**Q.** With `COc1ccc(N2C(=O)C(Cl)=C(Nc3ccccc3O)C2=O)cc1` as the compound, how does the percent span inhibition read?
**A.** The percent span inhibition was “inactive”.

**Q.** With `CCOC(=O)C1=C(CC)Nc2ccccc2N=C1NC(=O)c1ccc(S(=O)(=O)N2CCOCC2)cc1` as the compound, how does the percent span inhibition read?
**A.** Its percent span inhibition is “inactive”.

**Q.** `Cn1c(=O)c(C(=O)COC(=O)c2cc(-c3ccco3)nc3ccccc23)c(N)n(Cc2ccccc2)c1=O` was tested. Which percent span inhibition did it give?
**A.** The percent span inhibition was “inactive”.

**Q.** For `COc1cccc2c(SCC(=O)N/N=C/c3ccc(O)c(O)c3)cc(C)nc12`, which percent span inhibition is on record?
**A.** Its percent span inhibition is “inactive”.

**Q.** `Cc1ccccc1-n1c(SCc2cccc(F)c2)nc2[nH]ncc2c1=O` was tested. Which percent span inhibition did it give?
**A.** The percent span inhibition was “inactive”.

**Q.** How did the percent span inhibition turn out when `S=C(NCCc1ccccc1)NCCc1ccccc1` was run?
**A.** Its percent span inhibition is “inactive”.

**Q.** `COc1cc(NC(=O)c2ccc3c(c2)OCO3)ccc1NC(=O)c1ccco1` was tested. Which percent span inhibition did it give?
**A.** The percent span inhibition was “inactive”.

**Q.** `COc1ccc(-c2noc(COc3ccc4c(c3)OCO4)n2)cc1OC` was tested. Which percent span inhibition did it give?
**A.** Its percent span inhibition is “inactive”.

**Q.** With `Clc1ccc(N=c2ssnc2Cl)nc1` as the compound, how does the percent span inhibition read?
**A.** The percent span inhibition was “inactive”.

**Q.** With `Cc1cc(NC(=O)CCCC(=O)N(CC(=O)NC2CCCCC2)c2ccccc2)no1` as the compound, how does the percent span inhibition read?
**A.** Its percent span inhibition is “inactive”.
